Results taken from the supplement of paper PMC10307832.

Legend:
Assay in all cases: relative viability (nuclei count vs DMSO), 5 days (fraction); higher = more cells survive
[1] = compound: C1=CC=C2C(=C1)N=C(S2)C(C#N)C3=NC(=NC=C3)NCCC4=CN=CC=C4 + COc1cc2c(Oc3ccc(NC(=O)C4(C(=O)Nc5ccc(F)cc5)CC4)cc3F)ccnc2cc1OCCCN1CCOCC1 [Foretinib] (partner 0.25 µM)
Procedure, shortened: (§1)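 Values are medians from duplicate plates. Each reflects relative viability, defined as the nuclei count of treated wells over that of vehicle wells. Lung cancer cell lines in 1536-well plates were pin-tool dosed one day after seeding with one drug alone or with a fixed anchor-drug dose plus five library-drug doses (not always all listed) in √10 steps, then fixed, stained and imaged at 4× after 5 days.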

[2] = compound: COc1cc(N2CCC(N3CCN(C)CC3)CC2)ccc1Nc1ncc(Cl)c(Nc2ccccc2S(=O)(=O)C(C)C)n1 [NVP-TAE684] + Cc1nc(Nc2ncc(C(=O)Nc3c(C)cccc3Cl)s2)cc(N2CCN(CCO)CC2)n1 [Dasatinib] (partner 0.075 µM)
Procedure, shortened: as §1

[3] = compound: COc1cc2/c(=N/c3ccc(Br)cc3F)nc[nH]c2cc1OCC1CCN(C)CC1 [Vandetanib] + Cc1nc(NC(=O)N2CCC[C@H]2C(N)=O)sc1-c1ccnc(C(C)(C)C(F)(F)F)c1 [Alpelisib] (partner 2 µM)
Procedure, shortened: as §1

[4] = compound: COc1cc2/c(=N/c3ccc(Br)cc3F)nc[nH]c2cc1OCC1CCN(C)CC1 [Vandetanib] + N=C(N)NC(=N)NCCc1ccccc1 [Phenformin] (partner 250 µM)
Procedure, shortened: as §1

Cell Line	relative viability ([1]; first compound 0.005 µM)	relative viability ([1]; first compound 0.01581 µM)	relative viability ([1]; first compound 0.05 µM)	relative viability ([1]; first compound 0.1581 µM)	relative viability ([1]; first compound 0.5 µM)	relative viability ([2]; first compound 0.2 µM)	relative viability ([2]; first compound 0.6325 µM)	relative viability ([2]; first compound 2 µM)	relative viability ([3]; first compound 0.02 µM)	relative viability ([3]; first compound 0.06325 µM)	relative viability ([3]; first compound 0.2 µM)	relative viability ([3]; first compound 0.6325 µM)	relative viability ([3]; first compound 2 µM)	relative viability ([4]; first compound 0.02 µM)	relative viability ([4]; first compound 0.06325 µM)	relative viability ([4]; first compound 0.2 µM)	relative viability ([4]; first compound 0.6325 µM)	relative viability ([4]; first compound 2 µM)
HCC-827	1.06	1.06	1.06	1.16	1.13	0.262	0.241	0.124	1.02	0.986	0.752	0.233	0.167	0.441	0.367	0.319	0.157	0.165
HOP-62	0.891	1.14	1.14	1.26	0.952	0.444	0.509	0.201	0.814	0.836	0.746	0.972	0.993	0.689	0.664	0.487	0.728	0.703
IA-LM	0.691	1.21	1.17	1.24	0.916				0.588	0.783	0.791	0.961	0.811					
LC-2-ad	0.858	0.994	0.883	0.921	0.828	0.293		0.228	0.815	0.876	0.898	0.802	0.498	0.615	0.512	0.548	0.475	0.305
LCLC-97TM1	0.942	0.96	0.899	0.956	0.983	0.894	0.792	0.275	0.223	0.243	0.204	0.22	0.209	0.457	0.42	0.441	0.393	0.422
